According to US7659404B2, “Broad spectrum 2-(substituted-amino)-benzothiazole sulfonamide HIV protease inhibitors” (Tibotec Pharmaceuticals Ltd., priority 2001, dated 2010):
Where two headings read alike, the source gives them in different places.

Columns and labels:
[1] = Pharmacokinetics after oral dosing in rats (LC-MS); assay type: in vivo, Whistar rats; conditions: for concentration at 3 h / Cmax: Wistar, blood, 10 mg/kg, or, rat, 10 mpk, DMSO; for concentration at 3 h: oral, read-out: C3hours; for Cmax: po
Protocol: (§1) The pharmacokinetic properties of compounds 20, 88 and 90 were tested on rats and dogs. The compounds were evaluated in Whistar rats, source Iffa Credo, weighing approximately 350 g. Before dosing the animals were fasted overnight (approximately 12 h fasting period). The compounds were dissolved in DMSO. The results represented in the table concern the results from the oral dosing of the compounds. Blood was sampled at 30 min, 1 h, 2 h, 3 h, no pre-dose sample was taken. The amount of the compound in the biological sample was determined using LC-MS. In the table below “or” means oral dosing, “mpk” means mg per kilogram.

[2] = Pharmacokinetics after oral dosing in dogs (LC-MS); assay type: in vivo; conditions: blood, 10 mg/kg, or, dog, 10 mpk
Protocol: as §1

[3] = system: virus strain F (R13025); experiment: microbe, parasite or virus in culture; assay type: cell-based, HIV; conditions: FR=EC50(mutant strain)/EC50(HIV-1 strain LAI); strain F
Outline: (§2)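 MT4 cells, HIV or mock infection, 5 d with compound dilutions; MTT readout, formazan in isopropanol, A540. EC50/EC90 = conc. protecting 50/90% of cells from CPE; CC50 from mock-infected cells. FR = EC50 mutant/EC50 LAI.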

[4] = system: virus strain S (R13080); experiment: microbe, parasite or virus in culture; assay type: cell-based, HIV; conditions: FR=EC50(mutant strain)/EC50(HIV-1 strain LAI); strain S
Outline: as §2

[5] = system: HIV-1 strain LAI; experiment: Cellular anti-HIV assay in MT4 cells (MTT), wild type laboratory strain; assay type: cell-based; conditions: read-out: EC50 value against HIV-1 strain LAI
Protocol: The compounds of the present invention were examined for anti-viral activity in a cellular assay. […] The cellular assay was performed according to the following procedure.
Cellular Assay Experimental Method:
HIV- or mock-infected MT4 cells were incubated for five days in the presence of various concentrations of the inhibitor. At the end of the incubation period, all HIV-infected cells have been killed by the replicating virus in the control cultures in the absence of any inhibitor. Cell viability is measured by measuring the concentration of MTT, a yellow, water soluble tetrazolium dye that is converted to a purple, water insoluble formazan in the mitochondria of living cells only. Upon solubilization of the resulting formazan crystals with isopropanol, the absorbance of the solution is monitored at 540 nm. The values correlate directly to the number of living cells remaining in the culture at the completion of the five day incubation. The inhibitory activity of the compound was monitored on the virus-infected cells and was expressed as EC50 and EC90. These values represent the amount of the compound required to protect 50% and 90%, respectively, of the cells from the cytopathogenic effect of the virus. The toxicity of the compound was measured on the mock-infected cells and was expressed as CC50, which represents the concentration of compound required to inhibit the growth of the cells by 50%. The selectivity index (SI) (ratio CC50/EC50) is an indication of the selectivity of the anti-HIV activity of the inhibitor.

[6] = system: clinically isolated HIV strain O; assay type: cell-based; conditions: FR=EC50(mutant strain)/EC50(HIV-1 strain LAI)
Outline: as §2

[7] = system: clinically isolated HIV strain T; assay type: cell-based; conditions: FR=EC50(mutant strain)/EC50(HIV-1 strain LAI)
Outline: as §2

[8] = system: clinically isolated HIV strain I; assay type: cell-based; conditions: FR=EC50(mutant strain)/EC50(HIV-1 strain LAI)
Outline: as §2

[9] = system: clinically isolated HIV strain H; assay type: cell-based; conditions: FR=EC50(mutant strain)/EC50(HIV-1 strain LAI)
Outline: as §2

[10] = system: clinically isolated HIV strain J; assay type: cell-based; conditions: FR=EC50(mutant strain)/EC50(HIV-1 strain LAI)
Outline: as §2

[11] = system: clinically isolated HIV strain G; experiment: Antiviral spectrum, cellular assay (fold resistance), strain G; assay type: cell-based; conditions: FR=EC50(mutant strain)/EC50(HIV-1 strain LAI)
Outline: (§3)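 Fold resistance is the ratio of EC50 against the mutant isolate to EC50 against HIV-1 LAI. EC50 came from protection of infected MT4 cells over five days, scored by MTT reduction read at 540 nm.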

[12] = system: clinically isolated HIV strain L; experiment: Antiviral spectrum, cellular assay (fold resistance), strain L; assay type: cell-based; conditions: FR=EC50(mutant strain)/EC50(HIV-1 strain LAI)
Outline: as §3

[13] = system: clinically isolated HIV strain P; experiment: Antiviral spectrum, cellular assay (fold resistance), strain P; assay type: cell-based; conditions: FR=EC50(mutant strain)/EC50(HIV-1 strain LAI)
Outline: as §3

[14] = system: clinically isolated HIV strain B; experiment: Antiviral spectrum, cellular assay (fold resistance), strain B; assay type: cell-based; conditions: FR=EC50(mutant strain)/EC50(HIV-1 strain LAI)
Outline: as §3

[15] = system: clinically isolated HIV strain N; experiment: Antiviral spectrum, cellular assay (fold resistance), strain N; assay type: cell-based; conditions: FR=EC50(mutant strain)/EC50(HIV-1 strain LAI)
Outline: as §3

[16] = system: clinically isolated HIV strain D; experiment: Antiviral spectrum, cellular assay (fold resistance), strain D; assay type: cell-based; conditions: FR=EC50(mutant strain)/EC50(HIV-1 strain LAI)
Outline: as §3

[17] = system: clinically isolated HIV strain R; experiment: Antiviral spectrum, cellular assay (fold resistance), strain R; assay type: cell-based; conditions: FR=EC50(mutant strain)/EC50(HIV-1 strain LAI)
Outline: as §3

[18] = system: clinically isolated HIV strain K; experiment: Antiviral spectrum, cellular assay (fold resistance), strain K; assay type: cell-based; conditions: FR=EC50(mutant strain)/EC50(HIV-1 strain LAI)
Outline: as §3

[19] = system: clinically isolated HIV strain A; experiment: Antiviral spectrum, cellular assay (fold resistance), strain A; assay type: cell-based; conditions: FR=EC50(mutant strain)/EC50(HIV-1 strain LAI)
Outline: as §3

[20] = system: clinically isolated HIV strain Q; experiment: Antiviral spectrum, cellular assay (fold resistance), strain Q; assay type: cell-based; conditions: FR=EC50(mutant strain)/EC50(HIV-1 strain LAI)
Outline: as §3

[21] = system: clinically isolated HIV strain M; experiment: Antiviral spectrum, cellular assay (fold resistance), strain M; assay type: cell-based; conditions: FR=EC50(mutant strain)/EC50(HIV-1 strain LAI)
Outline: as §3

[22] = system: clinically isolated HIV strain C; experiment: Antiviral spectrum, cellular assay (fold resistance), strain C; assay type: cell-based; conditions: FR=EC50(mutant strain)/EC50(HIV-1 strain LAI)
Outline: as §3

[23] = system: clinically isolated HIV strain E; experiment: Antiviral spectrum, cellular assay (fold resistance), strain E; assay type: cell-based; conditions: FR=EC50(mutant strain)/EC50(HIV-1 strain LAI)
Outline: as §3

[24] = Human immunodeficiency virus 1, 120 h, MT4 cells, five days, MTT

Compound	concentration at 3 h [1] [ng/mL]	Cmax [1] [ng/mL]	Cmax ([2]; DMSO) [ng/mL]	fold resistance (FR), strain F [3]	fold resistance (FR), strain S [4]	fold resistance (FR), strain O [6]	fold resistance (FR), strain T [7]	fold resistance (FR), strain I [8]	fold resistance (FR), strain H [9]	fold resistance (FR), strain J [10]	EC50 [5, 24] [µM]	other results
CC(C)CN(C[C@@H](O)[C@H](Cc1ccccc1)NC(=O)O[C@H]1CO[C@H]2OCC[C@H]21)S(=O)(=O)c1ccc2nc(NCCN3CCCC3)sc2c1 [Compound 20]	401	1420	713	0.5	0.5	0.2	2.6	0.4	0.5	0.2		plasma level ([1]; oral dosing, comment on Table 8 (rats and dogs)): high; EC50 ([5]; Human immunodeficiency virus 1, MT4, 120 h): 0.05 to 0.5 µM
CC(C)CN(C[C@@H](O)[C@H](Cc1ccccc1)NC(=O)O[C@H]1CO[C@H]2OCC[C@H]21)S(=O)(=O)c1ccc2nc(N(C)CCCN(C)C)sc2c1 [Compound 88]	225	254		8.7	26.3						< 0.05	Cmax ([2]; (PEG)): 379 ng/mL
CC(C)CN(C[C@@H](O)[C@H](Cc1ccccc1)NC(=O)O[C@H]1CCOC1)S(=O)(=O)c1ccc2nc(NCCN(C)C)sc2c1 [Compound 90]	684	893	550	28.8	128.8						< 0.05	
CC(C)CN(C[C@@H](O)[C@H](Cc1ccccc1)NC(=O)O[C@H]1CO[C@H]2OCC[C@H]21)S(=O)(=O)c1ccc2nc(NCCN(C)C)sc2c1 [Compound 16]				0.4	1.6	0.3	6.6	0.3	0.3	0.3	< 0.05	fold resistance (FR), strain G [11]: 0.2; fold resistance (FR), strain L [12]: 0.1; fold resistance (FR), strain P [13]: 0.1; fold resistance (FR), strain B [14]: 0.3; fold resistance (FR), strain N [15]: 0.4; fold resistance (FR), strain D [16]: 0.2; fold resistance (FR), strain R [17]: 0.2; fold resistance (FR), strain K [18]: 0.2; fold resistance (FR), strain A [19]: 0.2; fold resistance (FR), strain Q [20]: 0.2; fold resistance (FR), strain M [21]: 0.2; fold resistance (FR), strain C [22]: 0.2; fold resistance (FR), strain E [23]: 0.3
